Test results from PubChem BioAssay AID330 (DTP/NCI, 2004).
“And” between values parts separate entries of the source, which are not always exact repeats. Equal entries are not always repeated. Inconclusive results and toxic doses are left out.

System: P388 leukemia ip, CD2F1 mice, survival T/C
Test: NCI In Vivo Anticancer Drug Screen. Data for tumor model P388 Leukemia (intraperitoneal) in CD2F1 (CDF1) mice
Details: endpoint: median survival time, higher = longer survival
Procedure, shortened: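 Mice carrying the transplanted tumor received test compound or vehicle. Survival was recorded in each group, and the value is the treated-group measurement divided by that of the vehicle-treated control group.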

[1] = dose: 50.0 mg/kg/injection, schedule: Q01DX005 (ip), vehicle: saline with Tween-80
[2] = dose: 100.0 mg/kg/injection, schedule: Q01DX005 (ip), vehicle: saline with Tween-80
[3] = dose: 200.0 mg/kg/injection, schedule: Q01DX005 (ip), vehicle: saline with Tween-80
[4] = dose: 50.0 mg/kg/injection, schedule: Q01DX009 (ip), vehicle: saline
[5] = dose: 60.0 mg/kg/injection, schedule: Q01DX005 (ip), vehicle: saline
[6] = dose: 200.0 mg/kg/injection, schedule: Q01DX009 (ip), vehicle: saline with Tween-80
[7] = dose: 50.0 mg/kg/injection, schedule: Q01DX009 (ip), vehicle: other
[8] = dose: 60.0 mg/kg/injection, schedule: Q01DX005 (ip), vehicle: saline with Tween-80
[9] = dose: 120.0 mg/kg/injection, schedule: Q01DX005 (ip), vehicle: saline with Tween-80
[10] = dose: 240.0 mg/kg/injection, schedule: Q01DX005 (ip), vehicle: saline with Tween-80
[11] = dose: 12.5 mg/kg/injection, schedule: Q01DX005 (ip), vehicle: saline with Tween-80
[12] = dose: 25.0 mg/kg/injection, schedule: Q01DX005 (ip), vehicle: saline with Tween-80
[13] = dose: 50.0 mg/kg/injection, schedule: Q01DX009 (ip), vehicle: saline with Tween-80
[14] = dose: 100.0 mg/kg/injection, schedule: Q01DX009 (ip), vehicle: saline with Tween-80
[15] = dose: 25.0 mg/kg/injection, schedule: Q01DX009 (ip), vehicle: other
[16] = dose: 100.0 mg/kg/injection, schedule: Q01DX009 (ip), vehicle: other
[17] = dose: 200.0 mg/kg/injection, schedule: Q01DX009 (ip), vehicle: other

SMILES: O=S(=O)(Nc1ccc(Cl)c(C(F)(F)F)c1)c1ccc(F)cc1
- T/C [1]: 100 % of control
- T/C [2]: 91 % of control
- T/C [3]: 98 % of control

SMILES: CC(=O)OC1C2CCC3C(C)(O)C4CC(O)C(C)(C)C4(O)C(O)CC13CC2(C)O (configuration not stated)
- T/C (dose: 0.09 mg/kg/injection, schedule: Q01DX009 (ip), vehicle: saline): 100 % of control
- T/C (dose: 0.19 mg/kg/injection, schedule: Q01DX009 (ip), vehicle: saline): 98 % of control
- T/C (dose: 0.25 mg/kg/injection, schedule: Q01DX009 (ip), vehicle: saline): 116 % of control
- T/C (dose: 0.39 mg/kg/injection, schedule: Q01DX009 (ip), vehicle: saline): 100 % of control and 89 % of control
- T/C (dose: 0.5 mg/kg/injection, schedule: Q01DX009 (ip), vehicle: saline): 108 % of control
- T/C (dose: 1.0 mg/kg/injection, schedule: Q01DX009 (ip), vehicle: saline): 107 % of control

SMILES: CCOC(=O)Cc1cc(O)c(C(=O)OCC)c(O)c1C(=O)OCC
- T/C (dose: 100.0 mg/kg/injection, schedule: Q01DX001 (ip), vehicle: saline with Tween-80): 105 % of control
- T/C (dose: 200.0 mg/kg/injection, schedule: Q01DX001 (ip), vehicle: saline with Tween-80): 105 % of control
- T/C (dose: 400.0 mg/kg/injection, schedule: Q01DX001 (ip), vehicle: saline with Tween-80): 99 % of control

SMILES: CC(C)(C)C1CC=CCC1 (configuration not stated)
- T/C (dose: 50.0 mg/kg/injection, schedule: Q01DX009 (ip), vehicle: saline sonified): 109 % of control
- T/C (dose: 100.0 mg/kg/injection, schedule: Q01DX009 (ip), vehicle: saline sonified): 100 % of control

SMILES: N#CCCOCC(COCCC#N)OCCC#N
- T/C [4]: 105 % of control
- T/C (dose: 100.0 mg/kg/injection, schedule: Q01DX009 (ip), vehicle: saline): 92 % of control
- T/C (dose: 200.0 mg/kg/injection, schedule: Q01DX009 (ip), vehicle: saline): 102 % of control

SMILES: O=C1NCC(=O)N2CCCC12 (configuration not stated)
- T/C [5]: 99 % of control
- T/C (dose: 120.0 mg/kg/injection, schedule: Q01DX005 (ip), vehicle: saline): 100 % of control
- T/C (dose: 240.0 mg/kg/injection, schedule: Q01DX005 (ip), vehicle: saline): 107 % of control

SMILES: CN(N=O)c1ccc(/C=C/c2ccnc3ccccc23)cc1
- T/C (dose: 88.0 mg/kg/injection, schedule: Q01DX009 (ip), vehicle: saline with Tween-80): 113 % of control
- T/C (dose: 132.0 mg/kg/injection, schedule: Q01DX009 (ip), vehicle: saline with Tween-80): 118 % of control
- T/C [6]: 154 % of control

SMILES: CCN(CC)C1CC(C)(O)Cc2cc3c(c(O)c21)C(=O)c1c(O)cc2c(c1C3=O)OC1OC2(C)C(O)C(N(C)C)C1O (configuration not stated)
- T/C [7]: 93 % of control

SMILES: CCOC(=O)C[n+]1cccc(S(=O)(=O)NC)c1
- T/C (dose: 12.5 mg/kg/injection, schedule: Q01DX009 (ip), vehicle: saline): 94 % of control
- T/C (dose: 25.0 mg/kg/injection, schedule: Q01DX009 (ip), vehicle: saline): 94 % of control
- T/C [4]: 93 % of control

SMILES: O=C1C=CC(=NBr)C=C1
- T/C [8]: 108 % of control
- T/C [9]: 110 % of control
- T/C [10]: 108 % of control

SMILES: CCC#CC(=O)OCC
- T/C [8]: 113 % of control
- T/C [9]: 102 % of control
- T/C [10]: 121 % of control

SMILES: CN(C)CC1CCc2c(ccc3ccccc23)C1=O (configuration not stated)
- T/C [11]: 100 % of control
- T/C [12]: 103 % of control
- T/C [1]: 100 % of control
- T/C [2]: 104 % of control

SMILES: O=C(Nc1cccc(Cl)c1)OCCCc1ccncc1
- T/C [13]: 96 % of control
- T/C [14]: 96 % of control

SMILES: O=C(CCl)NC(O)C(Cl)(Cl)Cl (configuration not stated)
- T/C [1]: 101 % of control
- T/C [2]: 99 % of control
- T/C [3]: 103 % of control

SMILES: CC1(C)CC(OP(=[Se])(OC2CC(C)(C)N(O)C(C)(C)C2)N2CC2)CC(C)(C)N1O
- T/C (dose: 12.5 mg/kg/injection, schedule: Q01DX001 (ip), vehicle: Klucel (hydroxypropylcellulose) (HPC)): 102 % of control
- T/C (dose: 25.0 mg/kg/injection, schedule: Q01DX001 (ip), vehicle: Klucel (hydroxypropylcellulose) (HPC)): 105 % of control
- T/C (dose: 50.0 mg/kg/injection, schedule: Q01DX001 (ip), vehicle: Klucel (hydroxypropylcellulose) (HPC)): 106 % of control

SMILES: NNS(=O)(=O)CCC(NC(=O)OCc1ccccc1)C(=O)OCc1ccccc1 (configuration not stated)
- T/C (dose: 12.5 mg/kg/injection, schedule: Q01DX009 (ip), vehicle: other): 98 % of control
- T/C [15]: 103 % of control
- T/C [7]: 94 % of control
- T/C [16]: 94 % of control
- T/C [17]: 98 % of control

SMILES: Cc1[nH]c(C(=O)O)cc(=O)c1C
- T/C [15]: 103 % of control
- T/C [7]: 103 % of control
- T/C [16]: 101 % of control
- T/C [17]: 99 % of control
- T/C (dose: 400.0 mg/kg/injection, schedule: Q01DX009 (ip), vehicle: other): 97 % of control

SMILES: CCOC(=O)C(C#N)(CCC(=NC(C)(C)C)Nc1ccccc1C#N)CCC(=NC(C)(C)C)Nc1ccccc1C#N (configuration not stated)
- T/C [13]: 100 % of control
- T/C [14]: 94 % of control

SMILES: CCC(=O)Nc1n[nH]c(NC(=O)CC)n1
- T/C (dose: 50.0 mg/kg/injection, schedule: Q01DX005 (ip), vehicle: Klucel (hydroxypropylcellulose) (HPC)): 103 % of control
- T/C (dose: 100.0 mg/kg/injection, schedule: Q01DX005 (ip), vehicle: Klucel (hydroxypropylcellulose) (HPC)): 100 % of control
- T/C (dose: 200.0 mg/kg/injection, schedule: Q01DX005 (ip), vehicle: Klucel (hydroxypropylcellulose) (HPC)): 100 % of control

SMILES: COc1ccc(CC2c3cc4c(cc3CCN2C)OCO4)c(C=O)c1OC (configuration not stated)
- T/C (dose: 12.5 mg/kg/injection, schedule: Q01DX001 (ip), vehicle: saline + alcohol): 93 % of control
- T/C (dose: 25.0 mg/kg/injection, schedule: Q01DX001 (ip), vehicle: saline + alcohol): 97 % of control
- T/C (dose: 50.0 mg/kg/injection, schedule: Q01DX001 (ip), vehicle: saline + alcohol): 99 % of control

SMILES: Nc1nc(SCc2ccccc2)sc1C(=O)N(Cc1ccccc1)Cc1ccccc1
- T/C (dose: 50.0 mg/kg/injection, schedule: Q01DX009 (ip), vehicle: Klucel (hydroxypropylcellulose) (HPC)): 98 % of control
- T/C (dose: 100.0 mg/kg/injection, schedule: Q01DX009 (ip), vehicle: Klucel (hydroxypropylcellulose) (HPC)): 100 % of control
- T/C (dose: 200.0 mg/kg/injection, schedule: Q01DX009 (ip), vehicle: Klucel (hydroxypropylcellulose) (HPC)): 100 % of control

SMILES: O=C([O-])CC(=O)[O-].[Cu+2].c1ccc(-c2ccccn2)nc1
- T/C (dose: 6.25 mg/kg/injection, schedule: Q01DX005 (ip), vehicle: saline with Tween-80): 101 % of control
- T/C [11]: 99 % of control
- T/C [12]: 108 % of control

SMILES: O=c1[nH]cc(CCCc2ccccc2)c(=O)[nH]1
- T/C (dose: 60.0 mg/kg/injection, schedule: Q01DX005 (ip), vehicle: Klucel (hydroxypropylcellulose) (HPC)): 102 % of control
- T/C (dose: 120.0 mg/kg/injection, schedule: Q01DX005 (ip), vehicle: Klucel (hydroxypropylcellulose) (HPC)): 95 % of control
- T/C (dose: 240.0 mg/kg/injection, schedule: Q01DX005 (ip), vehicle: Klucel (hydroxypropylcellulose) (HPC)): 95 % of control

SMILES: [Ni+2].[O-]c1ccccc1C=NCCCCCCN=Cc1ccccc1[O-]
- T/C (dose: 50.0 mg/kg/injection, schedule: Q04DX002 (ip), vehicle: saline with Tween-80): 94 % of control
- T/C (dose: 100.0 mg/kg/injection, schedule: Q04DX002 (ip), vehicle: saline with Tween-80): 93 % of control
- T/C (dose: 200.0 mg/kg/injection, schedule: Q04DX002 (ip), vehicle: saline with Tween-80): 93 % of control

SMILES: CC(C)(C)c1cc(=O)[nH]c(NC(N)=O)n1
- T/C [13]: 96 % of control
- T/C [14]: 90 % of control
- T/C [6]: 96 % of control

SMILES: Cc1cc([N+](=O)[O-])c(S(N)(=O)=O)c([N+](=O)[O-])c1
- T/C (dose: 3.13 mg/kg/injection, schedule: Q01DX009 (ip), vehicle: water): 96 % of control
- T/C (dose: 6.25 mg/kg/injection, schedule: Q01DX009 (ip), vehicle: water): 96 % of control
- T/C (dose: 12.5 mg/kg/injection, schedule: Q01DX009 (ip), vehicle: water): 99 % of control
- T/C (dose: 25.0 mg/kg/injection, schedule: Q01DX009 (ip), vehicle: water): 97 % of control
- T/C (dose: 50.0 mg/kg/injection, schedule: Q01DX009 (ip), vehicle: water): 98 % of control

SMILES: O=C(O)c1cc(Br)cc(SSc2cc(Br)cc(C(=O)O)c2O)c1O
- T/C [13]: 96 % of control

SMILES: CC(c1ccccc1)n1ccnc1CC#N (configuration not stated)
- T/C (dose: 15.0 mg/kg/injection, schedule: Q01DX005 (ip), vehicle: saline): 101 % of control
- T/C (dose: 30.0 mg/kg/injection, schedule: Q01DX005 (ip), vehicle: saline): 100 % of control
- T/C [5]: 99 % of control and 98 % of control
